According to patent US9376406B2, “uPAR-uPA interaction inhibitors and methods for treating cancer” (Indiana University Research and Technology Corporation, priority 2011, dated 2016):
Entries after “also recorded” stand apart in the source; their conditions may differ.

Tests used:
[1] = molecular target: T1, uPAR (Homo sapiens, UniProt Q03405); test: Fluorescence polarization assay, displacement of GFD-FAM; format: binding; details: displacement of GFD-FAM from uPAR
T1 construct: uPAR comprising amino acids 1-277 was expressed in Drosophila S2 cells; made in house; host or cells: Drosophila S2 cells
Description: Fluorescence Polarization Assay. […] Polarized fluorescence intensities were measured immediately following addition of inhibitors to the protein-peptide mix at room temperature on an EnVision® Multilabel Plate Readers (PerkinElmer) with excitation and emission wavelengths of 485 and 530 nm, respectively.
Fluorescence Polarization Screening to Identify Hit Compounds. To identify compounds that bind to uPAR at the GFD binding site, a fluorescent polarization assay is conceived with a probe that consists of labeling GFD with fluorescein at its N-terminus (GFD-FAM). […] Using this assay, all compounds that emerge from the computational screening are tested initially at a single concentration of 50 μM. The compounds showing the highest reduction in polarization are subjected to activity confirmation.

[2] = molecular target: T1, uPAR; test: Fluorescence polarization, direct binding to uPAR
Description: Fluorescence polarization in the presence and absence of protein and were measured using identical conditions as described above.
The mP was evaluated in the a presence and absence of competing 10 μM GFD.

[3] = molecular target: T2, uPAATF binding to uPAR (Homo sapiens, UniProt Q03405); test: Microtiter-based uPAATF ELISA; details: inhibition of uPAATF binding to uPAR
T2 construct: uPAR comprising amino acids 1-277 was expressed in Drosophila S2 cells; made in house; host or cells: Drosophila S2 cells (uPAR)
Description: Microtiter-Based ELISA. The competition-binding assays were performed by incubating the proteins with inhibitors prior to binding to the immobilized proteins. Medium to high-binding microplates were coated and incubated for 1 hour at 4° C. with 100 μL of 2 μg/mL of uPAATF in 1×PBS for immobilization. A 1:1 mixture of Superblock® buffer in PBS (Thermoscientific) with 0.04 M NaH2PO4 and 0.3 M NaCl buffer were used for blocking Following the incubation and washing steps, uPA1310 biotinylated antibody (R&D Systems, MN) in 1% BSA 1×PBS buffer (100 μL/well) was added to the wells and incubated for 1-2 hours to allow for the detection of bound uPAR. In the presence of streptavidin-peroxidase and hydrogen peroxide signal was detected on an EnVision® Multilabel Plate Readers (PerkinElmer).

[4] = test system: H1299 cells; test: Immunofluorescence imaging of surface uPA and uPAR; format: cell-based, human; details: H1299, 100 μM, 30 min, vs DMSO control
Description: (§1) Immunofluorescence Imaging. An immunofluorescence approach was employed to establish the specificity of the compounds. This consisted of using a fluorescently labeled secondary antibody to probe for the presence of an anti-uPA antibody bound to uPA at the cell surface of MDA-MB-231 and H1299 cancer cells. […] Non-specific bindings were blocked with 5% normal goat serum, 5% BSA, 0.01% Triton X-100 in PBS at RT for 1 h, the cells were then incubated overnight at 4° C. with rabbit polyclonal anti-human uPA or mouse monoclonal anti-human uPAR antibodies (both at a dilution of 1:100 in 1% BSA/PBS). After another washing step with PBS three times, the cells were incubated with anti-rabbit IgG conjugated with Alexa 594 Texas Red (Invitrogen Corporation, Carlsbad, Calif.) or goat anti-mouse IgG conjugated with Alexa Fluor 488 (Invitrogen Corporation, Carlsbad, Calif.), both at a dilution of 1:1000 in 1% BSA/PBS at RT for 1 h in the dark. Images were acquired using a Nikon swept-filed confocal microscope.
(§2) Endogenous uPAR and uPA in the non-small cell lung cancer (NSCLC) cell line H1299 and in a breast cancer cell line MDA-MB-231 were immunostained with selective antibodies and visualized by staining with fluorescently-conjugated secondary antibodies. Cells are stained with (a) a monoclonal antibody against uPAR or (b) a polyclonal antibody against uPA.
(§3) In cells with clear surface staining, the surface of each cell was outlined using uPAR staining and then the pixel immunodensity for uPAR and uPA were determined using Nikon elements software in the outlined regions. Only cells where the cell membrane was clearly discernible were included in the analysis. Each value represents the mean±S.E. from 26-30 cells taken from three different fields from two independent samples. *significant difference from the DMSO control (p<0.001, Student's t test). In the absence of any compound (0.1% DMSO; vehicle control) both uPAR and uPA were detected in large intracellular clusters as well as on surface membranes of MDA-MB-231 cells.

[5] = test system: MDA-MB-231 cells; test: Immunofluorescence imaging of surface uPA and uPAR; format: cell-based, human; details: MDA-MB-231, 100 μM, 30 min, vs DMSO control
Description: as §1, §2, §3

[6] = test system: H1299 cells; test: Transwell (Boyden chamber) migration assay; format: cell-based, human
Description: (§4) Transwell Migration Assay. A 24 well transwell plates (Costar, Corning, N.Y.) were coated with fibronectin. After 4 h of serum starvation, medium containing the same amount of compounds or DMSO were added to the upper chamber and incubated at 37° C. for 8 h. The number of migrated cells was counted in 10 separate 200×fields and averaged over three independent experiments. Cytotoxicity of the compounds on the cells was measured at the same concentrations used in the migration assay during the same incubation time. MTT was added 2 h before measuring.
as §4, with “A” for “Transwell Migration Assay. A”, “30 ng/μl of fibronectin at 4° C. overnight. 500 μl of 10% FBS RPMI-1640 medium containing compounds or 1% DMSO control was added to the lower chamber.” for “fibronectin.”, “starvation, 5×10^4 cells in 250 μl of 0.1% FBS” for “starvation,”, “h. […]” for “h.”, “time,” for “time.”, “measuring. […]” for “measuring.”

[7] = test system: MDA-MB-231 cells; test: Transwell (Boyden chamber) migration assay; format: cell-based, human
Description: as §4
as §4, with “A” for “Transwell Migration Assay. A”, “30 ng/μl of fibronectin at 4° C. overnight. 500 μl of 10% FBS RPMI-1640 medium containing compounds or 1% DMSO control was added to the lower chamber.” for “fibronectin.”, “starvation, 5×10^4 cells in 250 μl of 0.1% FBS” for “starvation,”, “h. […]” for “h.”, “time,” for “time.”, “measuring. […]” for “measuring.”

[8] = test system: H1299 cells; test: Cytotoxicity (MTT); format: cell-based, human
Description: as §4
(§5) A 24 well transwell plates (Costar, Corning, N.Y.) were coated with 30 ng/μl of fibronectin at 4° C. overnight. 500 μl of 10% FBS RPMI-1640 medium containing compounds or 1% DMSO control was added to the lower chamber. After 4 h of serum starvation, 5×10^4 cells in 250 μl of 0.1% FBS medium containing the same amount of compounds or DMSO were added to the upper chamber and incubated at 37° C. for 8 h. Non-invaded cells on the top of the transwell were scrapped-off with a cotton swab, and the cells that had migrated through the filter were fixed in methanol for 30 min, stained with Hematoxylin Stain (Fisher, SH30-500D) for 1 h. The number of migrated cells was counted in 10 separate 200×fields and averaged over three independent experiments. Cytotoxicity of the compounds on the cells was measured at the same concentrations used in the migration assay during the same incubation time, MTT was added 2 h before measuring.
(§6) Ten fields of unit area on each membrane were counted for cell numbers (magnification, 200×). […] The effect of the compound appears to be more pronounced in MDA-MB-231 cells compared with H1299. The level of toxicity of the compounds is measured at each concentration within the timescale of the invasion experiment to ensure that the observed effects are not due to cytotoxicity (FIG. 3(a)).

[9] = test system: MDA-MB-231 cells; test: Cytotoxicity (MTT); format: cell-based, human
Description: as §4, §5, §6

T1 sequence (Q03405 23-299): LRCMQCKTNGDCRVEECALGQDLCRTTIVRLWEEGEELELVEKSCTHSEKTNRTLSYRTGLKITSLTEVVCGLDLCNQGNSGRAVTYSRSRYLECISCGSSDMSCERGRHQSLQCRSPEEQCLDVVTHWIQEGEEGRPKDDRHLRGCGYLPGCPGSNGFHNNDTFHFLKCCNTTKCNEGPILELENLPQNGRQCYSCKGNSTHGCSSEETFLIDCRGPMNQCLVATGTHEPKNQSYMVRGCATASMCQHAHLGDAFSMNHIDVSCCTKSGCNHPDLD
T2 sequence (Q03405 23-299): as above

**Q.** Which results are given for `CC1CC(C)CN(c2cc(Nc3ccccc3C(=O)O)c3c4c(onc24)-c2ccccc2C3=O)C1` (stereo not drawn) [IPR-456]?
**A.** Ki [1]: 4 µM; Kd ([2]; direct binding to uPAR by fluorescence polarization): 0.312 µM; fluorescence polarization (mP) with increasing uPAR concentration ([2]; excitation 530 nm, emission 600 nm): showed a dose response with increasing mP; change in polarization with increasing uPAR ([2]; in the presence of 10 μM competing GFD): no change in the polarization was detected; IC50 [3]: ~10 µM; immunostaining pattern of uPAR [4]: no change in the immunostaining pattern of uPAR; uPA staining at the cell surface [4]: significant reduction of uPA staining at the cell surface; also recorded: impairs binding of uPA to uPAR at the cell membrane; immunostaining pattern of uPAR [5]: no change in the immunostaining pattern of uPAR; uPA staining at the cell surface [5]: significant reduction of uPA staining at the cell surface; also recorded: impairs binding of uPA to uPAR at the cell membrane; migration, Boyden chamber [6]: blocked migration in a dose-dependent manner; migration, Boyden chamber [7]: blocked migration in a dose-dependent manner; cytotoxicity ([8]; H1299, cells harvested from migration assays): none was observed; cytotoxicity ([8]; H1299, timescale of invasion experiment, concentrations reaching 200 μM): did not exhibit undue toxicity; cytotoxicity ([9]; MDA-MB-231, cells harvested from migration assays): none was observed; cytotoxicity ([9]; MDA-MB-231, timescale of invasion experiment, concentrations reaching 200 μM): did not exhibit undue toxicity
